Results as given in patent US7893288B2, “Poly-halogenated triazapentadiene compositions” (Board of Regents, The University of Texas System, priority 2007, dated 2011).
Values after ≈ are worked out from the molar mass of the structure shown. Values joined by “and” are separate entries in the source; they are usually repeats but may differ in a detail not shown here. Identical values can stand only once. Marks after values point to notes of the source that are not given here.

What was measured:
Type in all cases: cell-based
[1] = system: Pseudomonas aeruginosa PAO1; test: Disk sensitivity test (modified Kirby-Bauer), P. aeruginosa;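 further: Compound-loaded filter disks on LB agar lawns, DMSO as solvent, zone of inhibition around each disk read after overnight incubation at 37 °C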
Protocol: (§2) Filter disks were provided as sterile filter paper (about 6 mm in diameter) and spotted with 20 μL of a selected compound. Each compound was initially dissolved in dimethylsulfoxide (DMSO); any subsequent dilutions were also made in DMSO. Each filter was placed on an LB agar plate spread with 100 μL of a bacterial culture that had been grown overnight in suitable LB broth. Plates were incubated overnight at 37° C., after which, the extent of growth inhibition around each filter disk was measured. Bacterial strains included Staphylococcus aureus (ATCC 25923), Pseudomonas aeruginosa PAO1, Bacillus subtilis W168 and Escherichia coli HB101. […] The latter two strains are non-pathogenic Gram-positive and Gram-negative bacterial strains, respectively.

[2] = system: Pseudomonas aeruginosa PAO1; test: Minimum inhibitory concentration in LB broth, P. aeruginosa; settings: for Relative to AgNO3: efficacy per mole from MIC values
[3] = system: Escherichia coli HB101; test: Minimum inhibitory concentration in LB broth, E. coli; settings: for Relative to AgNO3: efficacy per mole from MIC values;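 on all read-outs here: broth dilution MIC, test compounds first taken up in DMSO, then serially diluted in LB medium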
[4] = system: Gram-positive bacteria (e.g., S. aureus and B. subtilis); test: Growth inhibition of Gram-positive bacteria, summary of TABLES 6-19
Protocol: (§1) The new class of fluorinated triazapentadiene compounds with and without metal complexation as described herein were analyzed for antibacterial activity against several bacterial strains (both Gram positive and Gram negative). Methods for antimicrobial analysis included a modified Kirby-Bauer method and a determination of their minimum inhibitory concentrations. In brief, the modified Kirby-Bauer method relied on placement of a filter disk impregnated with a desired compound on a solid growth medium. Bacteria were grown to a confluent lawn and the extent of growth inhibition was measured (e.g., as an extent/percentage of a clear zone on the disk and/or solid medium).
Filter disks were provided as sterile filter paper (about 6 mm in diameter) and spotted with 20 μL of a selected compound. Each compound was initially dissolved in dimethylsulfoxide (DMSO); any subsequent dilutions were also made in DMSO. Each filter was placed on an LB agar plate spread with 100 μL of a bacterial culture that had been grown overnight in suitable LB broth. Plates were incubated overnight at 37° C., after which, the extent of growth inhibition around each filter disk was measured. Bacterial strains included Staphylococcus aureus (ATCC 25923), Pseudomonas aeruginosa PAO1, Bacillus subtilis W168 and Escherichia coli HB101. […]

[5] = system: Bacillus subtilis W168; test: Disk sensitivity test (modified Kirby-Bauer), B. subtilis;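 further: Compound-loaded filter disks on LB agar plates seeded with a bacterial lawn, plates held overnight at 37 °C, then the clear zone around each disk measured, compounds in DMSO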
Protocol: as §2

[6] = system: Staphylococcus aureus (ATCC 25923); test: Minimum inhibitory concentration in LB broth, S. aureus; settings: for Relative to AgNO3: efficacy per mole from MIC values
[7] = system: Bacillus subtilis W168; test: Minimum inhibitory concentration in LB broth, B. subtilis; settings: for Relative to AgNO3: efficacy per mole from MIC values
[8] = system: Escherichia coli HB101; test: Disk sensitivity test (modified Kirby-Bauer), E. coli;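 further: filter disk loaded with compound in DMSO laid on an LB agar bacterial lawn, kept overnight at 37 °C, then the inhibition zone around the disk is measured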
Protocol: as §2

[9] = system: Staphylococcus aureus (ATCC 25923); test: Disk sensitivity test (modified Kirby-Bauer), S. aureus;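 further: Compound-loaded filter disks on LB agar plates seeded with a confluent bacterial lawn, compound dissolved in DMSO, plates kept overnight at 37 °C, then inhibition zone around disk measured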
Protocol: as §2

[10] = system: Gram positive and Gram negative bacteria; test: Antimicrobial activity, summary of TABLES 16-18
Protocol: as §1
For MIC assessment, compounds were initially dissolved in DMSO and serial dilutions of soluble compounds were made in LB broth.

For `Cc1cc(C)c(N=C(N=C(Nc2c(C)cc(C)cc2C)C(F)(F)C(F)(F)C(F)(F)F)C(F)(F)C(F)(F)C(F)(F)F)c(C)c1` [[N{(C3F7)C(Mes)N}2]H], the “Diameter of the zone of growth inhibition” value ([1]; 5.7 × 10^0 mM) was 8.5 mm, the “Diameter of the zone of growth inhibition” value ([1]; 5.7 × 10^1 mM) was 9.0 mm and the “Diameter of the zone of growth inhibition” value ([1]; 5.7 × 10^−1 mM) was 7.5 mm. The “Diameter of the zone of growth inhibition” value ([1]; 5.7 × 10^−2 mM) was 7.5 mm, the “Diameter of the zone of growth inhibition” value ([1]; 5.7 × 10^−3 mM) was 7.0 mm and the MIC [2] was 1402.43 μg/ml and 2.18 mM. For the same molecule, the “Relative to AgNO3” value [2] was 8.44 × 10^−3, the MIC [3] was 1126.88 μg/ml and 1.75 mM and the “Relative to AgNO3” value [3] was 3.37 × 10^−2. The “antibacterial activity against Gram-positive organisms (in words)” value [4] was “less effective”, the “Diameter of the zone of growth inhibition” value ([5]; 5.7 × 10^0 mM) was 8.0 mm and the “Diameter of the zone of growth inhibition” value ([5]; 5.7 × 10^1 mM) was 9.0 mm. For the same molecule, the “Diameter of the zone of growth inhibition” value ([5]; 5.7 × 10^−1 mM) was 6.0 (NZ) mm, the “Diameter of the zone of growth inhibition” value ([5]; 5.7 × 10^−2 mM) was 6.0 (NZ) mm and the “Diameter of the zone of growth inhibition” value ([5]; 5.7 × 10^−3 mM) was 6.0 (NZ) mm. For the same molecule, the MIC [6] was 2252.38 μg/ml and 3.50 mM, the “Relative to AgNO3” value [6] was 2.10 × 10^−2 and the MIC [7] was 2.69 mM (≈ 1730 µg/mL). The “Relative to AgNO3” value [7] was 5.46 × 10^−2, the “Diameter of the zone of growth inhibition” value ([8]; 5.7 × 10^0 mM) was 8.0 mm and the “Diameter of the zone of growth inhibition” value ([8]; 5.7 × 10^1 mM) was 10.0 mm. The “Diameter of the zone of growth inhibition” value ([8]; 5.7 × 10^−1 mM) was 7.5 mm, the “Diameter of the zone of growth inhibition” value ([8]; 5.7 × 10^−2 mM) was 7.0 mm and the “Diameter of the zone of growth inhibition” value ([8]; 5.7 × 10^−3 mM) was 7.0 mm. The “Diameter of the zone of growth inhibition” value ([9]; 5.7 × 10^0 mM) was 7.5 mm, the “Diameter of the zone of growth inhibition” value ([9]; 5.7 × 10^1 mM) was 9.5 mm and the “Diameter of the zone of growth inhibition” value ([9]; 5.7 × 10^−1 mM) was 6.0 (NZ) mm. The “Diameter of the zone of growth inhibition” value ([9]; 5.7 × 10^−2 mM) was 6.0 (NZ) mm and the “Diameter of the zone of growth inhibition” value ([9]; 5.7 × 10^−3 mM) was 6.0 (NZ) mm.
In the case of `Fc1cccc(C(F)(F)F)c1N=C(N=C(Nc1c(F)cccc1C(F)(F)F)C(F)(F)C(F)(F)C(F)(F)F)C(F)(F)C(F)(F)C(F)(F)F` [[N{(C3F7)C(2-F,6-(CF3)C6H3)N}2]H], the “Diameter of the zone of growth inhibition” value ([1]; 5.7 × 10^0 mM) is reported as 8.5 mm, the “Diameter of the zone of growth inhibition” value ([1]; 5.7 × 10^1 mM) is reported as 9.0 mm and the “Diameter of the zone of growth inhibition” value ([1]; 5.7 × 10^−1 mM) is reported as 8.0 mm. For the same molecule, the “Diameter of the zone of growth inhibition” value ([1]; 5.7 × 10^−2 mM) was 8.0 mm, the “Diameter of the zone of growth inhibition” value ([1]; 5.7 × 10^−3 mM) was 8.0 mm and the “Diameter of the zone of growth inhibition” value ([1]; 5.7 × 10^−4 mM) was 7.0 mm. The “Diameter of the zone of growth inhibition” value ([1]; 5.7 × 10^−5 mM) was 6.0 (NZ) mm, the MIC [2] was 2912.70 μg/ml and 3.98 mM and the “Relative to AgNO3” value [2] was 4.62 × 10^−3. The MIC [3] was 2912.70 μg/ml and 3.98 mM, the “Relative to AgNO3” value [3] was 1.48 × 10^−2 and the “antimicrobial activity (in words)” value [10] was “Effective”. The “Diameter of the zone of growth inhibition” value ([5]; 5.7 × 10^0 mM) was 85.0 mm, the “Diameter of the zone of growth inhibition” value ([5]; 5.7 × 10^1 mM) was 100.0 mm and the “Diameter of the zone of growth inhibition” value ([5]; 5.7 × 10^−1 mM) was 50.0 mm. For the same molecule, the “Diameter of the zone of growth inhibition” value ([5]; 5.7 × 10^−2 mM) was 30.0 mm, the “Diameter of the zone of growth inhibition” value ([5]; 5.7 × 10^−3 mM) was 13.5 mm and the “Diameter of the zone of growth inhibition” value ([5]; 5.7 × 10^−4 mM) was 7.0 mm. The “Diameter of the zone of growth inhibition” value ([5]; 5.7 × 10^−5 mM) was 8.0 mm, the “Diameter of the zone of growth inhibition” value ([5]; 5.7 × 10^−6 mM) was 8.0 mm and the “Diameter of the zone of growth inhibition” value ([5]; 5.7 × 10^−7 mM) was 7.5 mm. For the same molecule, the MIC [6] was 1.55 μg/ml and 1.06 × 10^−3 mM, the “Relative to AgNO3” value [6] was 34.71 and the MIC [7] was 1.60 × 10^−1 μg/ml and 2.19 × 10^−4 mM. For the same molecule, the “Relative to AgNO3” value [7] was 671.23, the “Diameter of the zone of growth inhibition” value ([8]; 5.7 × 10^0 mM) was 8.5 mm and the “Diameter of the zone of growth inhibition” value ([8]; 5.7 × 10^1 mM) was 9.0 mm. The “Diameter of the zone of growth inhibition” value ([8]; 5.7 × 10^−1 mM) was 8.0 mm, the “Diameter of the zone of growth inhibition” value ([8]; 5.7 × 10^−2 mM) was 7.0 mm and the “Diameter of the zone of growth inhibition” value ([8]; 5.7 × 10^−3 mM) was 7.0 mm. For the same molecule, the “Diameter of the zone of growth inhibition” value ([8]; 5.7 × 10^−4 mM) was 7.0 mm, the “Diameter of the zone of growth inhibition” value ([8]; 5.7 × 10^−5 mM) was 7.0 mm and the “Diameter of the zone of growth inhibition” value ([9]; 5.7 × 10^0 mM) was 36.0 mm. The “Diameter of the zone of growth inhibition” value ([9]; 5.7 × 10^1 mM) was 47.5 mm, the “Diameter of the zone of growth inhibition” value ([9]; 5.7 × 10^−1 mM) was 34.0 mm and the “Diameter of the zone of growth inhibition” value ([9]; 5.7 × 10^−2 mM) was 9.0 mm. For the same molecule, the “Diameter of the zone of growth inhibition” value ([9]; 5.7 × 10^−3 mM) was 8.0 mm, the “Diameter of the zone of growth inhibition” value ([9]; 5.7 × 10^−4 mM) was 6.0 (NZ) mm and the “Diameter of the zone of growth inhibition” value ([9]; 5.7 × 10^−5 mM) was 6.0 (NZ) mm.
`Fc1c(F)c(F)c(N=C(N=C([N]([Ag])c2c(F)c(F)c(F)c(F)c2F)C(F)(F)C(F)(F)C(F)(F)F)C(F)(F)C(F)(F)C(F)(F)F)c(F)c1F` [[N{(C3F7)C(C6F5)N}2]Ag] was tested, and the “Diameter of the zone of growth inhibition” value ([1]; 5.7 × 10^0 mM) was 16.5 mm, the “Diameter of the zone of growth inhibition” value ([1]; 5.7 × 10^1 mM) was 27.0 mm and the “Diameter of the zone of growth inhibition” value ([1]; 5.7 × 10^−1 mM) was 12.0 mm. The “Diameter of the zone of growth inhibition” value ([1]; 5.7 × 10^−2 mM) was 8.0 mm, the “Diameter of the zone of growth inhibition” value ([1]; 5.7 × 10^−3 mM) was 7.5 mm and the “Diameter of the zone of growth inhibition” value ([1]; 5.7 × 10^−4 mM) was 6.0 (NZ) mm. The “Diameter of the zone of growth inhibition” value ([1]; 5.7 × 10^−5 mM) was 6.0 (NZ) mm, the “Diameter of the zone of growth inhibition” value ([1]; 5.7 × 10^−6 mM) was 6.0 (NZ) mm and the MIC [2] was 23.69 μg/ml and 2.80 × 10^−2 mM. For the same molecule, the “sensitivity of the bacteria to the compound (in words)” value [2] was “most sensitive”, the “Relative to AgNO3” value [2] was 6.57 × 10^−1 and the MIC [3] was 23.69 μg/ml and 2.80 × 10^−2 mM. The “sensitivity of the bacteria to the compound (in words)” value [3] was “most sensitive”, the “Relative to AgNO3” value [3] was 2.10 and the “antimicrobial activity (in words)” value [10] was “Effective”. For the same molecule, the “Diameter of the zone of growth inhibition” value ([5]; 5.7 × 10^0 mM) was 37.0 mm, the “Diameter of the zone of growth inhibition” value ([5]; 5.7 × 10^1 mM) was 47.0 mm and the “Diameter of the zone of growth inhibition” value ([5]; 5.7 × 10^−1 mM) was 38.0 mm. For the same molecule, the “Diameter of the zone of growth inhibition” value ([5]; 5.7 × 10^−2 mM) was 22.0 mm, the “Diameter of the zone of growth inhibition” value ([5]; 5.7 × 10^−3 mM) was 11.0 mm and the “Diameter of the zone of growth inhibition” value ([5]; 5.7 × 10^−4 mM) was 7.5 mm. The “Diameter of the zone of growth inhibition” value ([5]; 5.7 × 10^−5 mM) was 6.0 (NZ) mm, the “Diameter of the zone of growth inhibition” value ([5]; 5.7 × 10^−6 mM) was 6.0 (NZ) mm and the MIC [6] was 1.80 μg/ml and 2.13 × 10^−3 mM. The “Relative to AgNO3” value [6] was 34.45, the MIC [7] was 1.80 μg/ml and 2.13 × 10^−3 mM and the “Relative to AgNO3” value [7] was 69.01. The “Diameter of the zone of growth inhibition” value ([8]; 5.7 × 10^0 mM) was 14.0 mm, the “Diameter of the zone of growth inhibition” value ([8]; 5.7 × 10^1 mM) was 18.0 mm and the “Diameter of the zone of growth inhibition” value ([8]; 5.7 × 10^−1 mM) was 11.0 mm. For the same molecule, the “Diameter of the zone of growth inhibition” value ([8]; 5.7 × 10^−2 mM) was 8.5 mm, the “Diameter of the zone of growth inhibition” value ([8]; 5.7 × 10^−3 mM) was 8.0 mm and the “Diameter of the zone of growth inhibition” value ([8]; 5.7 × 10^−4 mM) was 6.0 (NZ) mm. For the same molecule, the “Diameter of the zone of growth inhibition” value ([8]; 5.7 × 10^−5 mM) was 6.0 (NZ) mm, the “Diameter of the zone of growth inhibition” value ([8]; 5.7 × 10^−6 mM) was 6.0 (NZ) mm and the “Diameter of the zone of growth inhibition” value ([9]; 5.7 × 10^0 mM) was 33.0 mm. The “Diameter of the zone of growth inhibition” value ([9]; 5.7 × 10^1 mM) was 70.0 mm, the “Diameter of the zone of growth inhibition” value ([9]; 5.7 × 10^−1 mM) was 39.0 mm and the “Diameter of the zone of growth inhibition” value ([9]; 5.7 × 10^−2 mM) was 21.5 mm. The “Diameter of the zone of growth inhibition” value ([9]; 5.7 × 10^−3 mM) was 10.0 mm, the “Diameter of the zone of growth inhibition” value ([9]; 5.7 × 10^−4 mM) was 6.0 (NZ)^b mm and the “Diameter of the zone of growth inhibition” value ([9]; 5.7 × 10^−5 mM) was 6.0 (NZ) mm. The “Diameter of the zone of growth inhibition” value ([9]; 5.7 × 10^−6 mM) was 6.0 (NZ) mm.
